The numbers were not newly measured in US20080124273A1, “Novel cationic metal complex radiopharmaceuticals” (priority 2004, published 2008), which cites them from elsewhere.

The conditions of series [1]: background statement.
For series [2] the following is noted: background statement. This is another data set of the same source.

As to `[C-]#[N+]CC(C)(C)OC.[C-]#[N+]CC(C)(C)OC.[C-]#[N+]CC(C)(C)OC.[C-]#[N+]CC(C)(C)OC.[C-]#[N+]CC(C)(C)OC.[C-]#[N+]CC(C)(C)OC.[Tc]` [^99mTc-Sestamibi], in series [1], the first-pass extraction entry was “low”; the “uptake in liver and lungs” value is reported as “high”.
Regarding `CCOCCC[P]1(CCCOCC)CCN(CCOCC)CC[P](CCCOCC)(CCCOCC)[99Tc+]12(#[N])[S]C(N(CCOCC)CCOCC)=[S]2` [^99mTcN-DBODC6, [^99mTc(N)(N(CH2CH2OEt)2(PNP6)]^+], the lipophilicity entry in series [2] was “high”. Further, in series [1], the T/B ratios result is “poor” and the heart uptake result is “very low”.
